Test results reported in PubChem BioAssay AID248 (DTP/NCI, 2004).
Toxic doses and inconclusive results are not listed. No stated cut-off is given here; in the data, active means T/C of 150% or more; inactive means T/C below 125%. Peptide text beside a SMILES is read from it.

Test system: L1210 leukemia ip in BDF1 mice, survival T/C
Assay: NCI In Vivo Anticancer Drug Screen. Data for tumor model L1210 Leukemia (intraperitoneal) in B6D2F1 (BDF1) mice
Conditions: endpoint: mean survival time, higher = longer survival
Outline: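 Tumor was transplanted into mice, which were then dosed with test compound or vehicle alone. Survival was recorded for each group, and the treated figure was expressed relative to the control figure.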

[1] = dose: 100.0 mg/kg/injection, schedule: Q04DX003 (ip), vehicle: saline with Tween-80
[2] = dose: 200.0 mg/kg/injection, schedule: Q04DX003 (ip), vehicle: saline with Tween-80
[3] = dose: 400.0 mg/kg/injection, schedule: Q04DX003 (ip), vehicle: saline with Tween-80
[4] = dose: 75.0 mg/kg/injection, schedule: Q01DX001 (ip), vehicle: saline
[5] = dose: 100.0 mg/kg/injection, schedule: Q04DX002 (ip), vehicle: Klucel (hydroxypropylcellulose) (HPC)
[6] = dose: 50.0 mg/kg/injection, schedule: Q01DX009 (ip), vehicle: saline
[7] = dose: 100.0 mg/kg/injection, schedule: Q04DX003 (ip), vehicle: Klucel (hydroxypropylcellulose) (HPC)
[8] = dose: 200.0 mg/kg/injection, schedule: Q04DX003 (ip), vehicle: Klucel (hydroxypropylcellulose) (HPC)
[9] = dose: 400.0 mg/kg/injection, schedule: Q04DX003 (ip), vehicle: Klucel (hydroxypropylcellulose) (HPC)
[10] = dose: 100.0 mg/kg/injection, schedule: Q01DX001 (ip), vehicle: Klucel (hydroxypropylcellulose) (HPC)
[11] = dose: 200.0 mg/kg/injection, schedule: Q01DX001 (ip), vehicle: Klucel (hydroxypropylcellulose) (HPC)
[12] = dose: 200.0 mg/kg/injection, schedule: Q04DX002 (ip), vehicle: Klucel (hydroxypropylcellulose) (HPC)
[13] = dose: 100.0 mg/kg/injection, schedule: Q01DX009 (ip), vehicle: Klucel (hydroxypropylcellulose) (HPC)
[14] = dose: 200.0 mg/kg/injection, schedule: Q01DX009 (ip), vehicle: Klucel (hydroxypropylcellulose) (HPC)
[15] = dose: 400.0 mg/kg/injection, schedule: Q04DX002 (ip), vehicle: Klucel (hydroxypropylcellulose) (HPC)
[16] = dose: 50.0 mg/kg/injection, schedule: Q04DX003 (ip), vehicle: saline
[17] = dose: 100.0 mg/kg/injection, schedule: Q04DX003 (ip), vehicle: saline
[18] = dose: 200.0 mg/kg/injection, schedule: Q04DX003 (ip), vehicle: saline
[19] = dose: 400.0 mg/kg/injection, schedule: Q01DX001 (ip), vehicle: Klucel (hydroxypropylcellulose) (HPC)

Measured: T/C

O=C(CCl)OCC1CC2C=CC1C2 (configuration not stated)
inactive: dose: 222.0 mg/kg/injection, schedule: Q01DX Z (ip), vehicle: saline 98 % of control | dose: 333.0 mg/kg/injection, schedule: Q01DX Z (ip), vehicle: saline 100 % of control | dose: 500.0 mg/kg/injection, schedule: Q01DX Z (ip), vehicle: saline 96 % of control

CC(C)(Cl)Cc1ccccc1
inactive: dose: 100.0 mg/kg/injection, schedule: Q01DX009 (ip), vehicle: saline with Tween-80 88 % of control | [1] 103 % of control | dose: 200.0 mg/kg/injection, schedule: Q01DX009 (ip), vehicle: saline with Tween-80 91 % of control | [2] 105 % of control | [3] 94 % of control

CN(C)CCCn1nc(-c2ccccc2)oc1=O
inactive: [4] 96 % of control | dose: 150.0 mg/kg/injection, schedule: Q01DX001 (ip), vehicle: saline 87 % of control

NC(CCC(=O)O)C(=O)NC(CC(=O)O)C(=O)O (stereo not drawn) (H-Glu-Asp-OH; configuration not given here)
inactive: dose: 12.5 mg/kg/injection, schedule: Q04DX002 (ip), vehicle: Klucel (hydroxypropylcellulose) (HPC) 90 % of control | dose: 25.0 mg/kg/injection, schedule: Q04DX002 (ip), vehicle: Klucel (hydroxypropylcellulose) (HPC) 105 % of control | dose: 50.0 mg/kg/injection, schedule: Q04DX002 (ip), vehicle: Klucel (hydroxypropylcellulose) (HPC) 98 % of control | [5] 94 % of control

Cc1nsc(N)n1
inactive: dose: 12.5 mg/kg/injection, schedule: Q01DX009 (ip), vehicle: saline 108 % of control | dose: 25.0 mg/kg/injection, schedule: Q01DX009 (ip), vehicle: saline 105 % of control | [6] 100 % of control | dose: 100.0 mg/kg/injection, schedule: Q01DX001 (ip), vehicle: saline 92 % of control | [7] 102 % of control | dose: 200.0 mg/kg/injection, schedule: Q01DX001 (ip), vehicle: saline 100 % of control | [8] 113 % of control | dose: 400.0 mg/kg/injection, schedule: Q01DX001 (ip), vehicle: saline 101 % of control | [9] 104 % of control

C1CCC(SSC2CCCC2)C1
inactive: [1] 89 % of control | [2] 92 % of control | [3] 92 % of control

CC(=O)CCNC1(c2ccccc2)CCCCC1
inactive: [10] 95 % of control | [11] 95 % of control

O=C(O)/C=C/c1ccc([N+](=O)[O-])s1
inactive: [5] 90 % of control | [12] 90 % of control

CCOC(=O)C(=O)c1cnc2c(OC)nn(O)cc1-2
inactive: dose: 12.5 mg/kg/injection, schedule: Q04DX002 (ip), vehicle: saline with Tween-80 102 % of control | dose: 25.0 mg/kg/injection, schedule: Q04DX002 (ip), vehicle: saline with Tween-80 109 % of control | dose: 50.0 mg/kg/injection, schedule: Q04DX002 (ip), vehicle: saline with Tween-80 102 % of control

C/C=C(\C)C#N
inactive: dose: 22.0 mg/kg/injection, schedule: Q01DX Z (ip), vehicle: saline 102 % of control | dose: 33.0 mg/kg/injection, schedule: Q01DX Z (ip), vehicle: saline 93 % of control

O=C(O)c1cccc([N+](=O)[O-])c1Br
inactive: [13] 94 % of control | [14] 100 % of control | dose: 400.0 mg/kg/injection, schedule: Q01DX009 (ip), vehicle: Klucel (hydroxypropylcellulose) (HPC) 91 % of control

NC(N)=N/N=C/c1cccc([N+](=O)[O-])c1
inactive: dose: 15.0 mg/kg/injection, schedule: Q01DX Z (ip), vehicle: carboxymethylcellulose (CMC) 98 % of control | dose: 30.0 mg/kg/injection, schedule: Q01DX Z (ip), vehicle: carboxymethylcellulose (CMC) 93 % of control | dose: 60.0 mg/kg/injection, schedule: Q01DX Z (ip), vehicle: carboxymethylcellulose (CMC) 90 % of control

CCO/C(C)=N/OC(=O)c1ccccc1
inactive: [5] 94 % of control | [12] 110 % of control | [15] 94 % of control

COc1ccc(CSC(=S)Nc2ccc(Cl)c(Cl)c2)cc1
inactive: [16] 101 % of control | [17] 108 % of control | [18] 93 % of control

Clc1c(Cl)c(Cl)c2n[nH]nc2c1Cl
inactive: [4] 96 % of control

O=CNNC(=O)c1ccccn1
inactive: dose: 50.0 mg/kg/injection, schedule: Q01DX001 (ip), vehicle: water 108 % of control | [6] 98 % of control | [16] 100 % of control | dose: 100.0 mg/kg/injection, schedule: Q01DX001 (ip), vehicle: water 108 % of control | dose: 100.0 mg/kg/injection, schedule: Q01DX009 (ip), vehicle: saline 101 % of control | [17] 96 % of control | dose: 200.0 mg/kg/injection, schedule: Q01DX009 (ip), vehicle: saline 114 % of control | [18] 109 % of control

O=C(CCN1CC=C(c2ccccc2)CC1)c1ccc(F)cc1
inactive: dose: 50.0 mg/kg/injection, schedule: Q01DX001 (ip), vehicle: Klucel (hydroxypropylcellulose) (HPC) 93 % of control | [10] 97 % of control

Clc1ccc2c(c1)/C(=C\c1ccnc3ccccc13)c1cc(Cl)cc(Cl)c1-2
inactive: [10] 94 % of control | [13] 93 % of control | [7] 93 % of control | [11] 92 % of control | [14] 98 % of control | [8] 88 % of control | [19] 94 % of control | [9] 88 % of control

O=C(CC(c1ccccc1)N1CCN(c2ccccc2)CC1)c1ccccc1 (configuration not stated)
inactive: [7] 102 % of control | [8] 97 % of control | [9] 94 % of control

Clc1ccc(OCc2sc3ccc(Br)cc3c2CN2CCc3ccccc3C2)cc1
inactive: dose: 75.0 mg/kg/injection, schedule: Q01DX009 (ip), vehicle: Klucel (hydroxypropylcellulose) (HPC) 101 % of control | [7] 94 % of control | dose: 150.0 mg/kg/injection, schedule: Q01DX009 (ip), vehicle: Klucel (hydroxypropylcellulose) (HPC) 94 % of control | [8] 98 % of control | dose: 300.0 mg/kg/injection, schedule: Q01DX009 (ip), vehicle: Klucel (hydroxypropylcellulose) (HPC) 97 % of control | [9] 94 % of control

NC(=O)NC(=O)c1nc2ccccc2[nH]c1=O
inactive: [5] 95 % of control | [12] 95 % of control | [15] 100 % of control

CCN(CC)CCN1C(=O)[C@H]2CC=CC[C@H]2C1=O
inactive: dose: 44.0 mg/kg/injection, schedule: Q01DX Z (ip), vehicle: saline 111 % of control | dose: 66.0 mg/kg/injection, schedule: Q01DX Z (ip), vehicle: saline 100 % of control | dose: 100.0 mg/kg/injection, schedule: Q01DX Z (ip), vehicle: saline 98 % of control

CCC(C)C(CCCCN1CCOCC1)(CNC(=O)CN(CC)CC)c1cccc2ccccc12 (configuration not stated)
inactive: dose: 12.5 mg/kg/injection, schedule: Q04DX003 (ip), vehicle: saline 104 % of control | dose: 25.0 mg/kg/injection, schedule: Q04DX003 (ip), vehicle: saline 98 % of control | [16] 108 % of control

O=C(NCCc1ccc([N+](=O)[O-])cc1)c1ccc(S(=O)(=O)F)cc1
inactive: [10] 103 % of control | [11] 94 % of control | [19] 103 % of control
